Data taken from US20260102495A1, “METHOD FOR PRODUCING ONE OR SEVERAL SHARED CANCER EPITOPE(S) DERIVED FROM ALTERNATIVE TRANSLATIONAL CONTROL” (CENTRE LEON BERARD, priority 2022, published 2026).
No end group written: not given here.

Key:
[1] = test system: HLA-A2+ normal human primary cells
Description: After elution, dissociation, filtration, and cleanup, peptides were lyophilized before further analysis. Transition parameters for each epitope peptide were examined and curated through Valid-NEO method builder bioinformatic pipeline to exclude ions with excessive noise due to coelution with impurities and to boost up the detectability through recursive optimizations of significant ions.

CD8+ naive T cells = assay: PBMCs priming assay on HLA-A*02:01 healthy donors with dextramer analysis; assay type: cell-based, human

Sequence	presentation of epitope at the cell surface (MS transitions) [1]	donors in which priming of peptide specific CD8+ T cells was identified (CD8+ naive T cells; 12 different donors, FIG. 2B)	dextramer positive CD8+ T cells (CD8+ naive T cells; after 12 days priming with peptide pulsed MoDCs, FIG. 2A)
LLLEATANL [PR3]	not presented by normal cells		
SLTDLYLRI [PR5]		2 donors	0.068%
